Experiments:
barnyardgrass [1] = assay: Test B pre-/postemergence herbicide test; assay type: in vivo, Echinochloa crus-galli
Method in brief: (§1)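 Greenhouse pot assay with simultaneous preemergence (treated seed) and postemergence (2–18 cm seedlings) applications of surfactant-containing, non-phytotoxic solvent formulations. Response scored visually 13–15 days later on a 0–100 scale, 100 meaning complete control.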

Surinam grass = assay: Test B pre-/postemergence herbicide test; assay type: in vivo, Urochloa decumbens
Method in brief: (§2)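 Visual rating, 0 (no effect) to 100 (complete control), versus untreated controls after 13–15 d in greenhouse. Pre- and postemergence applications (postemergence plants 2–18 cm, 1–4 leaves); flooded paddy arm at 2-leaf stage. Compounds in non-phytotoxic solvent plus surfactant.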

cocklebur = assay: Test B pre-/postemergence herbicide test; assay type: in vivo, Xanthium strumarium
Method in brief: as §1

corn = assay: Test B pre-/postemergence herbicide test; assay type: in vivo, Zea mays; settings: Preemergence, 500 g ai/ha; scale 0 to 100
Method in brief: as §2

large crabgrass = assay: Test B pre-/postemergence herbicide test; assay type: in vivo, Digitaria sanguinalis
Method in brief: as §2

giant foxtail = assay: Test B pre-/postemergence herbicide test; assay type: in vivo, Setaria faberi
Method in brief: as §2

lambsquarters = assay: Test B pre-/postemergence herbicide test; assay type: in vivo, Chenopodium album
Method in brief: as §2

morningglory = assay: Test B pre-/postemergence herbicide test; assay type: in vivo, Ipomoea coccinea; settings: preemergence, 125 g ai/ha; 0 to 100 scale, 0 is no effect, 100 is complete control
Method in brief: as §1

pigweed = assay: Test B pre-/postemergence herbicide test; assay type: in vivo, Amaranthus retroflexus
Method in brief: as §2

velvetleaf = assay: Test B pre-/postemergence herbicide test; assay type: in vivo, Abutilon theophrasti
Method in brief: as §2

wheat = assay: Test B postemergence herbicide test; assay type: in vivo, Triticum aestivum; settings: Postemergence, 500 g ai/ha; visual rating after 13 to 15 days, scale 0 (no effect) to 100 (complete control)
Method in brief: (§3)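 Postemergence plants were sprayed with formulated test chemicals at 2 to 18 cm height (1- to 4-leaf stage); paddy species were grown to the 2-leaf stage. After 13 to 15 days in a greenhouse, injury was rated visually against untreated controls on a 0–100 scale (0 = no effect, 100 = complete control).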

wild oat = assay: Test B postemergence herbicide test; assay type: in vivo, Avena fatua; settings: Postemergence, scale 0 (no effect) to 100 (complete control)
Method in brief: as §3

rice = assay: Test B flooded paddy test; assay type: in vivo, Oryza sativa; settings: 1000 g ai/ha, visual rating, scale 0 to 100 (0 no effect, 100 complete control), 13 to 15 days
Method in brief: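 Read-out: visual comparison with controls, scored 0 to 100, where 100 means complete control and 0 no effect. Formulated chemicals were applied postemergence to plants 2–18 cm tall (1- to 4-leaf), or to flooded-paddy plants at the 2-leaf stage, then held 13 to 15 days under glass.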

[2] = system: small flower umbrella sedge; assay: Test B flooded paddy test; assay type: in vivo, Cyperus difformis; settings: 1000 g ai/ha, visual rating, scale 0 to 100 (0 no effect, 100 complete control), 13 to 15 days
Method in brief: (§4)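 Greenhouse test; postemergence application to plants at 1–4 leaves (2–18 cm); paddy species at 2 leaves; evaluated visually vs controls at 13–15 days; scale 0–100 (100 = complete control).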

barnyardgrass [3] = assay: Test B flooded paddy test; assay type: in vivo, Echinochloa crus-galli; settings: 1000 g ai/ha, visual rating, scale 0 to 100 (0 no effect, 100 complete control), 13 to 15 days
Method in brief: as §4

[4] = Postemergence, 125 g ai/ha, scale 0 (no effect) to 100 (complete control)
[5] = Postemergence, 500 g ai/ha, visual rating after 13 to 15 days, scale 0 (no effect) to 100 (complete control)
[6] = Preemergence, 500 g ai/ha, scale 0 to 100
[7] = preemergence, 125 g ai/ha, 0 to 100 scale, 0 is no effect, 100 is complete control

C=Cn1nc(C(C)(C)C)cc1C(=O)Nc1cccc(C(=O)NCC)c1 [Compound 33]
Barnyardgrass plant response rating (barnyardgrass [1]; [4]): 20
Plant response rating, Barnyardgrass (barnyardgrass [1]; [5]): 30
Barnyardgrass plant response rating (barnyardgrass [1]; [6]): 90
Plant response rating, Surinam Grass (Surinam grass; [5]): 30
Surinam Grass plant response rating (Surinam grass; [6]): 80
Plant response rating, Surinam Grass (Surinam grass; [7]): 30
Cocklebur plant response rating (cocklebur; [4]): 80
Plant response rating, Cocklebur (cocklebur; [5]): 100
Cocklebur plant response rating (cocklebur; [6]): 30
Corn plant response rating (corn): 30
Crabgrass, Large plant response rating (large crabgrass; [4]): 20
Plant response rating, Crabgrass, Large (large crabgrass; [5]): 30
Crabgrass, Large plant response rating (large crabgrass; [6]): 100
Foxtail, Giant plant response rating (giant foxtail; [4]): 30
Plant response rating, Foxtail, Giant (giant foxtail; [5]): 30
Foxtail, Giant plant response rating (giant foxtail; [6]): 100
Plant response rating, Foxtail, Giant (giant foxtail; [7]): 80
Lambsquarters plant response rating (lambsquarters; [4]): 90
Plant response rating, Lambsquarters (lambsquarters; [5]): 90
Lambsquarters plant response rating (lambsquarters; [6]): 100
Plant response rating, Lambsquarters (lambsquarters; [7]): 100
Plant response rating, Morningglory (morningglory): 10
Plant response rating, Pigweed (pigweed; [5]): 90
Pigweed plant response rating (pigweed; [6]): 100
Plant response rating, Pigweed (pigweed; [7]): 100
Plant response rating, Velvetleaf (velvetleaf; [5]): 60
Velvetleaf plant response rating (velvetleaf; [6]): 80
Plant response rating, Velvetleaf (velvetleaf; [7]): 40
Plant response rating, Wheat (wheat): 30
Oat, Wild plant response rating (wild oat; 125 g ai/ha): 10
Plant response rating, Oat, Wild (wild oat; 500 g ai/ha, visual rating after 13 to 15 days): 10
Rice plant response rating (rice): 60
Sedge, Umbrella plant response rating [2]: 90
Barnyardgrass plant response rating (barnyardgrass [3]): 90

— patent publication US20060069132A1, “Azolecarboxamide herbicides” (priority 2004, published 2006)
